Data taken from patent EP0728012B1, “NOVEL GnRH ANALOGUES WITH ANTITUMOUR EFFECTS AND PHARMACEUTICAL COMPOSITIONS THEREOF” (Lovas, Sandor, priority 1994, dated 1996).

Key:
MCF-7 = conditions: MCF-7; 30 µM active substance; conjugate, treated once; cell count on 7th day
Method: (§1) The procedure of treatment was as follows. After trypsinization the cells, 400,000 cells of MCF-7, MDA-MB-231 human mammary carcinoma, PC3 human prostate carcinoma or Ishikawa human endometrium tumour each were passed into Petri dishes of 10 cm in diameter. Starting from the day following transfer, the cells were treated with the substances to be tested in solution prepared with the nutrient medium during the exponential growth phase. […]

MDA-MB-231 = conditions: MDA-MB-231; 30 µM active substance; conjugate, treated once
Method: as §1

MXT mouse mammary tumour = assay: In vivo antitumour effect on mice bearing MXT mouse mammary tumour; parameters: species or system CBA/Ca mice
Method: The MXT mouse mammary carcinoma contains ER and PgR proteins; furthermore, it contains also GnRH receptors; therefore, this in vivo tumour model is suitable for studying both the direct and indirect effects. The treatment of mice bearing MXT mammary tumour was commenced on the day following transplantation. […] Table VI The animals were daily treated in s.c. route starting from the day following transplantation of MXT mouse mammary tumour. […] MI-1544: 75 µg/day/animal; MI-1892: 75 µg/day/animal.

MDA-MB-231 xenograft = assay: In vivo antitumour effect on MDA-MB-231 xenograft in immunosuppressed mice; parameters: species or system CBA/Ca mice
Method: The immunosuppression of mice was carried out by using the method of Steel et al. [Br. J. Cancer, 37, 224-230 (1978)]. Immunosuppression and xeno-transplantation
CBA-Ca female mice of about 6 weeks old were thymectomized and then, after one week, they were irradiated with 60Co (whole body irradiation; the lethal dose is 9.5 Gray). Within 24 hours 3 to 5 x 10^5 myelocytes were injected into the animals. Beneath the skin of the immunosuppressed mice 2 x 10^7 tumour cells or, in the case of later passages, […] were implanted. […] The treatment with steroid hormone was stopped by at least one week before beginning the investigation.
Recent investigations have begun on 28 animals bearing MCF-7 xenograft and on 28 animals bearing MDA-MB-231 xenograft. On animals bearing MCF-7 tumour the treatment was commenced in the 5th week following xeno-transplantation; the tumour volume was 205 to 225 mm^3. On animals bearing MDA-MB-231 tumour, the treatment was started in the 4th week after xeno-transplantation with a tumour volume of 140 to 150 mm^3. […] The control groups were daily treated with physiological saline s.c. (Each treated group consisting of 7 animals).
A more recent study was started on 28 animals bearing MDA-MB-231 xenograft. The treatment was begun in the 4th or 5th week following xenotransplantation. The tumour volume was 0.165 to 0.194 cm^3. […] (For treatment of the control group, see the preceding Examples). Each group consisted of 7 animals.

PC3 = assay: In vitro inhibition of cell proliferation (Example 19); assay type: cell-based, human; conditions: 30 µM active substance, conjugate, treated once
Method: (§2) The procedure of treatment was as follows. After trypsinization the cells, 400,000 cells of MCF-7, MDA-MB-231 human mammary carcinoma, PC3 human prostate carcinoma or Ishikawa human endometrium tumour each were passed into Petri dishes of 10 cm in diameter. Starting from the day following transfer, the cells were treated with the substances to be tested in solution prepared with the nutrient medium during the exponential growth phase. The cultures were treated with 1 to 50 µM (calculated for the total volume of the culture) or MI-1544 GnRH antagonist, MI-1892 chicken GnRH antagonist or SJ-1004 GnRH antagonist analogues as well as synthetic lamprey GnRH-III hormone every two days and the cell count was determined on the 7th day.

[1] = system: cytosolic progesterone receptor (cPgR); conditions: animals bearing MCF-7 xenografts
Ishikawa = conditions: 30 µM active substance, conjugate, treated once
Method: as §2, with “antagonist analogues as well as synthetic lamprey GnRH-III hormone every two days and the cell count was determined” left out

[2] = MXT mouse mammary tumour, Treatment weeks: 13, 1x75 µg daily s.c.
[3] = MXT mouse mammary tumour, Treatment weeks: 20, 1x75 µg daily s.c.
[4] = MDA-MB-231 xenograft, after 9 week treatment, 100 µg daily s.c.
[5] = Table V, treatment week 2, 1x100 µg daily s.c.
[6] = Table V, treatment week 2, conjugates 1x50 µg daily s.c.
[7] = Table V, treatment week 6, 1x100 µg daily s.c.
[8] = Table V, treatment week 6, MI-1892 2x25 µg, conjugates 1x50 µg daily s.c.
[9] = week 0, daily s.c., 1 x 100 µg series
[10] = week 0, daily s.c., P-GFLG-1544 1 x 50 µg, P-GFLG-1892 1 x 75 µg
[11] = week 1, daily s.c., 1 x 100 µg series
[12] = week 1, daily s.c., P-GFLG-1544 1 x 50 µg, P-GFLG-1892 1 x 75 µg
[13] = week 2, daily s.c., 1 x 100 µg series
[14] = week 2, daily s.c., P-GFLG-1544 1 x 50 µg, P-GFLG-1892 1 x 75 µg
[15] = week 3, daily s.c., 1 x 100 µg series
[16] = week 3, daily s.c., P-GFLG-1544 1 x 50 µg, P-GFLG-1892 1 x 75 µg
[17] = week 4, daily s.c., 1 x 100 µg series
[18] = week 4, daily s.c., P-GFLG-1544 1 x 50 µg, P-GFLG-1892 1 x 75 µg
[19] = week 5, daily s.c., 1 x 100 µg series
[20] = week 5, daily s.c., P-GFLG-1544 1 x 50 µg, P-GFLG-1892 1 x 75 µg
[21] = week 6, daily s.c., 1 x 100 µg series
[22] = week 6, daily s.c., P-GFLG-1544 1 x 50 µg, P-GFLG-1892 1 x 75 µg
[23] = week 7, daily s.c., 1 x 100 µg series

Ac-D-Trp^1,3,D-Cpa^2,{Lys(n-poly-(N-vinylpyrrolidone-co-maleic acid)-Gly-Phe-Leu-Gly]}^6,D-Ala^10-GnRH [P-GFLG-1544]
% Inhibition of cell division (proliferation) (MCF-7): 58%
% Inhibition of cell division (proliferation) (MDA-MB-231): 45%
Inhibition % (MXT mouse mammary tumour; [2]): 61%
Tumour volume as control (%) (MXT mouse mammary tumour; [2]): 39%
Inhibition % (MXT mouse mammary tumour; [3]): 49%
Tumour volume as control (%) (MXT mouse mammary tumour; [3]): 51%
Tumour volume (cm^3) (MXT mouse mammary tumour; day 9, 75 µg/day/animal s.c.): 0.38 cm^3
Tumour volume as control (%) (MXT mouse mammary tumour; day 9, 75 µg/day/animal s.c.): 55%
Tumour volume (cm^3) (MXT mouse mammary tumour; day 11, 75 µg/day/animal s.c.): 0.74 cm^3
Tumour volume as control (%) (MXT mouse mammary tumour; day 11, 75 µg/day/animal s.c.): 41%
Tumour volume (cm^3) (MXT mouse mammary tumour; day 13, 75 µg/day/animal s.c.): 1.26 cm^3
Tumour volume as control (%) (MXT mouse mammary tumour; day 13, 75 µg/day/animal s.c.): 39%
Tumour volume (cm^3) (MXT mouse mammary tumour; day 17, 75 µg/day/animal s.c.): 2.43 cm^3
Tumour volume as control (%) (MXT mouse mammary tumour; day 17, 75 µg/day/animal s.c.): 46%
Tumour volume (cm^3) (MXT mouse mammary tumour; day 18, 75 µg/day/animal s.c.): 3.91 cm^3
Tumour volume as control (%) (MXT mouse mammary tumour; day 18, 75 µg/day/animal s.c.): 52%
Tumour volume (cm^3) (MXT mouse mammary tumour; day 20, 75 µg/day/animal s.c.): 4.74 cm^3
Tumour volume as control (%) (MXT mouse mammary tumour; day 20, 75 µg/day/animal s.c.): 51%
Tumour volume (cm^3) (MXT mouse mammary tumour; day 24, 75 µg/day/animal s.c.): 7.34 cm^3
Tumour volume as control (%) (MXT mouse mammary tumour; day 24, 75 µg/day/animal s.c.): 58%
Tumour volume (cm^3) (MXT mouse mammary tumour; day 26, 75 µg/day/animal s.c.): 9.03 cm^3
Tumour volume as control (%) (MXT mouse mammary tumour; day 26, 75 µg/day/animal s.c.): 65%
animals that became tumour-free (MDA-MB-231 xenograft; MDA-MB-231 xenograft, 100 µg daily s.c., 6th week of treatment): 1 animals from 7
Volume (cm^3) of tumours (MDA-MB-231 xenograft; [4]): 1.618 ± 0.518 cm^3
Weight (g) of tumours (MDA-MB-231 xenograft; [4]): 0.94 ± 0.52 g
tumour-free animals (MDA-MB-231 xenograft; MDA-MB-231 xenograft, end of the 6th week, first series): A tumour-free animal was found
Inhibition % (MDA-MB-231 xenograft; [5]): 29%
Tumour volume as control (%) (MDA-MB-231 xenograft; [5]): 71%
Inhibition % (MDA-MB-231 xenograft; [6]): 23.5%
Tumour volume as control (%) (MDA-MB-231 xenograft; [6]): 76.5%
Inhibition % (MDA-MB-231 xenograft; [7]): 53%
Tumour volume as control (%) (MDA-MB-231 xenograft; [7]): 47%
Inhibition % (MDA-MB-231 xenograft; [8]): 40%
Tumour volume as control (%) (MDA-MB-231 xenograft; [8]): 60%
Tumour volume (cm^3) (MDA-MB-231 xenograft; [9]): 0.17 cm^3
Tumour volume as control (%) (MDA-MB-231 xenograft; [9]): 101%
Tumour volume (cm^3) (MDA-MB-231 xenograft; [10]): 0.15 cm^3
Tumour volume as control (%) (MDA-MB-231 xenograft; [10]): 100%
Tumour volume (cm^3) (MDA-MB-231 xenograft; [11]): 0.24 cm^3
Tumour volume as control (%) (MDA-MB-231 xenograft; [11]): 105%
Tumour volume (cm^3) (MDA-MB-231 xenograft; [12]): 0.21 cm^3
Tumour volume as control (%) (MDA-MB-231 xenograft; [12]): 83%
Tumour volume (cm^3) (MDA-MB-231 xenograft; [13]): 0.3 cm^3
Tumour volume as control (%) (MDA-MB-231 xenograft; [13]): 72%
Tumour volume (cm^3) (MDA-MB-231 xenograft; [14]): 0.21 cm^3
Tumour volume as control (%) (MDA-MB-231 xenograft; [14]): 66%
Tumour volume (cm^3) (MDA-MB-231 xenograft; [15]): 0.36 cm^3
Tumour volume as control (%) (MDA-MB-231 xenograft; [15]): 65%
Tumour volume (cm^3) (MDA-MB-231 xenograft; [16]): 0.24 cm^3
Tumour volume as control (%) (MDA-MB-231 xenograft; [16]): 66%
Tumour volume (cm^3) (MDA-MB-231 xenograft; [17]): 0.35 cm^3
Tumour volume as control (%) (MDA-MB-231 xenograft; [17]): 53%
Tumour volume (cm^3) (MDA-MB-231 xenograft; [18]): 0.28 cm^3
Tumour volume as control (%) (MDA-MB-231 xenograft; [18]): 67%
Tumour volume (cm^3) (MDA-MB-231 xenograft; [19]): 0.46 cm^3
Tumour volume as control (%) (MDA-MB-231 xenograft; [19]): 49%
Tumour volume (cm^3) (MDA-MB-231 xenograft; [20]): 0.33 cm^3
Tumour volume as control (%) (MDA-MB-231 xenograft; [20]): 75%
Tumour volume (cm^3) (MDA-MB-231 xenograft; [21]): 0.58 cm^3
Tumour volume as control (%) (MDA-MB-231 xenograft; [21]): 47%
Tumour volume (cm^3) (MDA-MB-231 xenograft; [22]): 0.36 cm^3
Tumour volume as control (%) (MDA-MB-231 xenograft; [22]): 63%
Tumour volume (cm^3) (MDA-MB-231 xenograft; [23]): 0.75 cm^3
Tumour volume as control (%) (MDA-MB-231 xenograft; [23]): 59%
% Inhibition of cell division (proliferation) (PC3): 68.5%
decrease of the uterus cPgR level [1]: 54%
% Inhibition of cell division (proliferation) (Ishikawa): 95%
